Data: PubChem BioAssay AID1963868 (Molecular Pharmacology Branch, DTP, NCI, 2024)

Tested on: KRAS PDC tumor spheroids (HUVEC+MSC), viability
Assay: Anticancer human tumor 254851-301-R-J1-PDC patient-derived colon carcinoma cell line growth inhibition [KRAS2]
Details: for viability, T/C: stronger effect = lower value
From the text: Multicellular complex tumor spheroid response to RAS pathway inhibitors in combination with a targeted agents in patient-derived cell lines with oncogenic KRAS variants from multiple cancer types
A high-throughput screen of multi-cell type tumor spheroids was designed to identify active combinations of targeted small molecules and KRAS pathway inhibitors. Complex spheroids include a stromal component modeled by human endothelial cells (HUVEC) and fibroblasts modeled by human mesenchymal stem cells (MSCs). The concentration ranges selected for each drug and investigational agent were based upon clinically achievable concentrations if the clinical Cmax of the agent was known.
Compounds. The drugs and investigational agents: BI-3406 (NSC825286), BAY-293 (NSC824723), batoprotafib (TNO155; NSC825523), sotorasib (AMG 510; NSC818433), MRTX1257 (NSC819558), elimusertib (BAY 1895344; NSC800525), molibresib (GSK525762; NSC774829), temuterkib (LY3214996; NSC803410), venetoclax (NSC766270), alisertib (NSC759677), olaparib (NSC753686), talazoparib (NSC767125), erdafitinib (NSC781556), ipatasertib (NSC767898), cabozantinib (NSC761068), nintedanib (NSC756659), abemaciclib (NSC768073), docetaxel (NSC628503), trametinib (NSC758246), and sapanisertib (NSC764658) were obtained from the National Cancer Institute (NCI) Developmental Therapeutics Program Chemical Repository. The FDA-approved anticancer drug set is available from the Developmental Therapeutics Program. […] The stock solutions were prepared in dimethyl sulfoxide (DMSO, Sigma-Aldrich, St. Louis, MO, cat. D2650) at 800-fold the tested concentration and stored at -70 degrees C prior to their use. All drugs and investigational agents were tested over a range starting from a high concentration at or near the clinical Cmax and decreasing in half-log increments. If the clinical Cmax for an agent had not been determined, the highest concentration tested was 10 microM.
Cell Culture. All cells were maintained in an incubator at 37 degrees C and 5% CO2 with 95% humidity. The PDC lines were cultured according to standard operating procedures established by the NCI PDMR (https://pdmr.cancer.gov/sops/default.htm). Briefly, all PDCs were thawed and cultured in Matrigel-coated flasks prepared with a working solution of 1X Ham's F-12 nutrient mix, without supplementation (Invitrogen, Waltham, MA, cat. 11765054), 100 U/mL penicillin-streptomycin (Invitrogen, cat. 15140122), and 2.5% Matrigel (Corning Inc., Corning, NY, cat. 354248) for the first three passages. All PDCs were cultured in complete DMEM/F-12 media containing advanced DMEM/F-12 (Invitrogen, cat. 12634028), 4.9% defined fetal bovine serum, heat inactivated (HyClone Laboratories Inc., Logan, UT, cat. SH30070.03HI), 389 ng/mL hydrocortisone (Sigma-Aldrich, cat. H4001), 9.7 ng/mL human EGF recombinant protein (Invitrogen, cat. PHG0313), 23.4 microg/mL adenine (Sigma-Aldrich, cat. A2786), 97.3 U/mL penicillin-streptomycin (Invitrogen, cat. 15140122), 1.9 mM L-glutamine (Invitrogen, cat. 25030081), and 9.7 microM Y-27632 dihydrochloride (Tocris Bioscience, Bristol, United Kingdom, cat. 1254). The PDCs were cultured in complete DMEM/F12 media without 9.7 microM Y-27632 dihydrochloride for at least two passages prior to the screen. The established cell line HOP-62 was cultured in RPMI 1640 medium, HEPES (Invitrogen, cat. 22400105) with 10% defined fetal bovine serum (HyClone Laboratories Inc., cat. SH30070.03) and 2 mM L-glutamine (Invitrogen, cat. 25030081). The pooled donor HUVEC were cultured in endothelial cell growth medium 2 (PromoCell, Heidelberg, Germany, cat. C-22011) and the hMSC were cultured in mesenchymal stem cell growth medium 2 (PromoCell, cat. C-28009). For all experiments, HUVEC and hMSC were used at passages </=5, while the malignant cell lines were used at passages </=15. […]

[1] = curve of first compound, second compound 0.1 µM
[2] = curve of first compound, second compound 0.316 µM
[3] = curve of first compound, second compound 1 µM
[4] = curve of first compound, second compound 3.16 µM
[5] = curve of first compound, second compound 10 µM
[6] = second compound 0.1 µM, first compound 0.0316 µM
[7] = second compound 0.1 µM, first compound 0.1 µM
[8] = second compound 0.1 µM, first compound 0.316 µM
[9] = second compound 0.1 µM, first compound 1 µM
[10] = second compound 0.1 µM, first compound 3.16 µM
[11] = second compound 0.1 µM, first compound 10 µM
[12] = second compound 0.316 µM, first compound 0.0316 µM
[13] = second compound 0.316 µM, first compound 0.1 µM
[14] = second compound 0.316 µM, first compound 0.316 µM
[15] = second compound 0.316 µM, first compound 1 µM
[16] = second compound 0.316 µM, first compound 3.16 µM
[17] = second compound 0.316 µM, first compound 10 µM
[18] = second compound 1 µM, first compound 0.0316 µM
[19] = second compound 1 µM, first compound 0.1 µM
[20] = second compound 1 µM, first compound 0.316 µM
[21] = second compound 1 µM, first compound 1 µM
[22] = second compound 1 µM, first compound 3.16 µM
[23] = second compound 1 µM, first compound 10 µM
[24] = second compound 3.16 µM, first compound 0.0316 µM
[25] = second compound 3.16 µM, first compound 0.1 µM
[26] = second compound 3.16 µM, first compound 0.316 µM
[27] = second compound 3.16 µM, first compound 1 µM
[28] = second compound 3.16 µM, first compound 3.16 µM
[29] = second compound 3.16 µM, first compound 10 µM
[30] = second compound 10 µM, first compound 0.0316 µM
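Also: spheroids exposed to compounds for seven days before readout.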
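For viability, T/C in this document: 100% = DMSO vehicle control luminescence of the spheroids.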

Q: What does the source list for COc1cc2nccc(Oc3ccc(NC(=O)C4(C(=O)Nc5ccc(F)cc5)CC4)cc3)c2cc1OC + COc1cc2nc(C)nc(NC(C)c3cc(N)cc(C(F)(F)F)c3)c2cc1OC1CCOC1?
A: IC50 [1]: > 10000 nM; IC50 [2]: > 10000 nM; IC50 [3]: > 10000 nM; IC50 [4]: > 10000 nM; IC50 [5]: 2670 nM; viability, T/C [6]: 101%; viability, T/C [7]: 109%; viability, T/C [8]: 114%; viability, T/C [9]: 99%; viability, T/C [10]: 58%; viability, T/C [11]: 96.4%; viability, T/C [12]: 85.9%; viability, T/C [13]: 108%; viability, T/C [14]: 122%; viability, T/C [15]: 90%; viability, T/C [16]: 66.2%; viability, T/C [17]: 98.8%; viability, T/C [18]: 103%; viability, T/C [19]: 106%; viability, T/C [20]: 104%; viability, T/C [21]: 90%; viability, T/C [22]: 42.1%; viability, T/C [23]: 84.4%; viability, T/C [24]: 103%; viability, T/C [25]: 104%; viability, T/C [26]: 87.7%; viability, T/C [27]: 80.6%; viability, T/C [28]: 20.9%; viability, T/C [29]: 92.7%; viability, T/C [30]: 64.5%; viability, T/C (second compound 10 µM, first compound 0.1 µM): 103%; viability, T/C (second compound 10 µM, first compound 0.316 µM): 90%; viability, T/C (second compound 10 µM, first compound 1 µM): 67.2%; viability, T/C (second compound 10 µM, first compound 3.16 µM): 4%; viability, T/C (second compound 10 µM, first compound 10 µM): 90.1%

Q: How did the IC50 (curve of first compound, second compound 0.0316 µM) turn out when COc1cc(Nc2ncc3c(n2)-c2ccc(Cl)cc2C(c2c(F)cccc2OC)=NC3)ccc1C(=O)O + C=CC(=O)N1CCN(c2nc(OCC3CCCN3C)nc3c2CCN(c2cccc4cccc(C)c24)C3)CC1CC#N was run?
A: 89.2 nM

Q: And the IC50 [1]?
A: 87.2 nM

Q: And the IC50 [2]?
A: 89.1 nM

Q: What about the IC50 [3] of the same molecule?
A: 78 nM

Q: What about the IC50 [4] of the same molecule?
A: 34.6 nM

Q: And the viability, T/C (second compound 0.0316 µM, first compound 0.0316 µM)?
A: 84.6%

Q: What about the viability, T/C (second compound 0.0316 µM, first compound 0.1 µM) of the same molecule?
A: 41.6%

Q: And the viability, T/C (second compound 0.0316 µM, first compound 0.316 µM)?
A: 30.3%

Q: And the viability, T/C (second compound 0.0316 µM, first compound 1 µM)?
A: 27.5%

Q: And the viability, T/C (second compound 0.0316 µM, first compound 3.16 µM)?
A: 17.7%

Q: And the viability, T/C (second compound 0.0316 µM, first compound 10 µM)?
A: 9.36%

Q: And the viability, T/C [6]?
A: 82.4%

Q: And the viability, T/C [7]?
A: 40%

Q: What about the viability, T/C [8] of the same molecule?
A: 31.1%

Q: What about the viability, T/C [9] of the same molecule?
A: 27%

Q: And the viability, T/C [10]?
A: 16.2%

Q: And the viability, T/C [11]?
A: 8.9%

Q: And the viability, T/C [12]?
A: 79.4%

Q: What about the viability, T/C [13] of the same molecule?
A: 40.6%

Q: What about the viability, T/C [14] of the same molecule?
A: 32.7%

Q: What about the viability, T/C [15] of the same molecule?
A: 24.5%

Q: And the viability, T/C [16]?
A: 17%

Q: What about the viability, T/C [17] of the same molecule?
A: 7.34%

Q: And the viability, T/C [18]?
A: 73.5%

Q: And the viability, T/C [19]?
A: 37.5%

Q: And the viability, T/C [20]?
A: 32%

Q: What about the viability, T/C [21] of the same molecule?
A: 25.9%

Q: And the viability, T/C [22]?
A: 16.4%

Q: What about the viability, T/C [23] of the same molecule?
A: 8.35%

Q: What about the viability, T/C [24] of the same molecule?
A: 53.9%

Q: And the viability, T/C [25]?
A: 22.1%

Q: And the viability, T/C [26]?
A: 19.8%

Q: What about the viability, T/C [27] of the same molecule?
A: 17%

Q: And the viability, T/C [28]?
A: 6.88%

Q: And the viability, T/C [29]?
A: 1.67%

Q: What does the source list for CC(=O)Nc1cccc(-n2c(=O)n(C3CC3)c(=O)c3c(Nc4ccc(I)cc4F)n(C)c(=O)c(C)c32)c1 + COc1cc2nc(C)nc(NC(C)c3cc(N)cc(C(F)(F)F)c3)c2cc1OC1CCOC1?
A: IC50 [1]: 3.89 nM; IC50 [2]: 4.05 nM; IC50 [3]: 2.77 nM; IC50 [4]: 2.19 nM; IC50 [5]: 0.663 nM; viability, T/C (second compound 0.1 µM, first compound 0.0001 µM): 105%; viability, T/C (second compound 0.1 µM, first compound 0.000316 µM): 97.8%; viability, T/C (second compound 0.1 µM, first compound 0.001 µM): 90.6%; viability, T/C (second compound 0.1 µM, first compound 0.00316 µM): 60.4%; viability, T/C (second compound 0.1 µM, first compound 0.01 µM): 9.1%; viability, T/C [6]: 2.7%; viability, T/C (second compound 0.316 µM, first compound 0.0001 µM): 108%; viability, T/C (second compound 0.316 µM, first compound 0.000316 µM): 99%; viability, T/C (second compound 0.316 µM, first compound 0.001 µM): 94%; viability, T/C (second compound 0.316 µM, first compound 0.00316 µM): 62.7%; viability, T/C (second compound 0.316 µM, first compound 0.01 µM): 6.64%; viability, T/C [12]: 2.56%; viability, T/C (second compound 1 µM, first compound 0.0001 µM): 111%; viability, T/C (second compound 1 µM, first compound 0.000316 µM): 88.2%; viability, T/C (second compound 1 µM, first compound 0.001 µM): 89.9%; viability, T/C (second compound 1 µM, first compound 0.00316 µM): 45.8%; viability, T/C (second compound 1 µM, first compound 0.01 µM): 5.69%; viability, T/C [18]: 2.26%; viability, T/C (second compound 3.16 µM, first compound 0.0001 µM): 100%; viability, T/C (second compound 3.16 µM, first compound 0.000316 µM): 97.7%; viability, T/C (second compound 3.16 µM, first compound 0.001 µM): 85.6%; viability, T/C (second compound 3.16 µM, first compound 0.00316 µM): 33.4%; viability, T/C (second compound 3.16 µM, first compound 0.01 µM): 4.02%; viability, T/C [24]: 2.15%; viability, T/C (second compound 10 µM, first compound 0.0001 µM): 84.8%; viability, T/C (second compound 10 µM, first compound 0.000316 µM): 72.5%; viability, T/C (second compound 10 µM, first compound 0.001 µM): 38%; viability, T/C (second compound 10 µM, first compound 0.00316 µM): 3.27%; viability, T/C (second compound 10 µM, first compound 0.01 µM): 2.32%; viability, T/C [30]: 1.62%

Q: How did the viability, T/C (compound 0.0316 µM) turn out when O=C(c1cc(Cc2n[nH]c(=O)c3ccccc23)ccc1F)N1CCN(C(=O)C2CC2)CC1 was run?
A: 107% [middle of 5 runs]

Q: What about the viability, T/C (compound 0.1 µM) of the same molecule?
A: 108% [middle of 5 runs]

Q: And the viability, T/C (compound 0.316 µM)?
A: 99.5% [middle of 5 runs]

Q: What about the viability, T/C (compound 1 µM) of the same molecule?
A: 99.5% [middle of 5 runs]

Q: And the viability, T/C (compound 3.16 µM)?
A: 97.4% [middle of 5 runs]

Q: What about the viability, T/C (compound 10 µM) of the same molecule?
A: 99.1% [middle of 5 runs]

Q: What about the IC50 (curve of compound) of the same molecule?
A: > 10000 nM
